From patent publication US8758769B2, “Composition for preventing and treating acetaminophen inducing liver injury comprising the protein extract from Porphyra yezoensis” (Pukyong National University Industry Academic Cooperation …, priority 2006, dated 2014)

How the values were obtained:
liver tissue of a rat = assay: Liver appearance and H&E histology of liver tissue, AAP induced liver injury; type: in vivo; conditions: rats, AAP 700 mg/kg abdominal administration, 24 hours
Experimental: For this, the liver tissue of the white rat bred by each experiment group is extracted and lightly washed by the saline solution so that blood is removed. A portion of the liver tissue is cut and then the cut liver tissue is cut into thickness of 0.5 cm and fixed into Bouin fixation solution. Thereafter, the cut liver tissue is inserted into a tissue capsule within 24 hours by using the same fixation solution and fixed again. Thereafter, the fixed tissue is washed, inserted into an autotechnicon, dehydrated in the sequencing concentration alcohol and processed transparently by xylene. At an embedding center, paraffin is infiltrated into the tissue capsule and an embedding process is performed, so that a block is manufactured. The block is cut thinly with thickness of 5[…] by a rotary microtome and the cut blocks are left in a floating thermostat in order to be spreaded fully and then attached onto a clean slide glass. Thereafter, to firmly adhere the slide glass and the tissue cut pieces, the slide glass with the tissue cut pieces is left at a slide warmer maintaining temperature of about 60° C. Finally, to basically observe the arrangement of cell and the morphological change, all tissue pieces are dyed by Hematoxylin & Eosin capable of separately seeing the nucleus and cytoplasm and thereafter, observed by an optical microscopy.

[1] = tested on: DNA within the liver tissue; assay: DNA fragmentation in the liver tissue; type: in vivo, rat; conditions: rats, AAP 700 mg/kg
Source text: To confirm the modes of the cell apoptosis, DNA within the liver tissue is extracted and then the degree of fragmentation is examined.

SMILES: CC(=O)Nc1ccc(O)cc1 [AAP, Acetaminophen]
- Colour/appearance of the liver (degree of liver injury, FIG. 2) (liver tissue of a rat): the liver tissue represents the bright brown
- Inside of the liver tissue by optical microscopy, H&E dyeing (FIG. 3) (liver tissue of a rat): plural nucleus decomposition positions are observed about the central vein
- DNA fragmentation in the liver tissue (FIG. 6(B)) [1]: a certain DNA fraction is observed
